In US6603044B1, “Phthalamide derivatives, or salt thereof agrohorticultural insecticide, and method for using the same” (Nihon Nohyaku Co., Ltd., priority 1998, dated 2003):

System: Diamond Back Moth (Plutella xylostella)
Assay: Insecticidal effect on diamond back moth (Test Example 1)
Type: in vivo
Settings: 50 ppm; Chinese cabbage seedling with deposited eggs immersed about 30 seconds; 25° C.; six days after the immersion
From the text: Insecticidal Effect on Diamond Back Moth (Plutella xylostella)
Adult diamondback moths were released and allowed to oviposit on a Chinese cabbage seedling. Two days after the release, the seedling having the eggs deposited thereon was immersed for about 30 seconds in a liquid chemical prepared by diluting a preparation containing each compound listed in Table 1, 2 or 3 as an active ingredient to adjust the concentration to 50 ppm. After air-dryness, it was allowed to stand in a room thermostatted at 25° C. Six days after the immersion, the hatched insects were counted. The mortality was calculated according to the following equation and the insecticidal effect was judged according to the criterion shown below. The test was carried out with triplicate groups of 10 insects.

| Structure (SMILES) | Test Example 1 insecticidal effect (mortality) |
| --- | --- |
| CSCCN(C)C(=O)c1c(F)cccc1C(=O)Nc1ccc(C(F)(C(F)(F)F)C(F)(F)F)cc1C [2-7] | A (100) |
| Cc1cc(C(F)(C(F)(F)F)C(F)(F)F)ccc1NC(=O)c1cccc(F)c1C(=O)N(C)CC[S+](C)[O-] (centres unmarked) [2-9] | A (100) |
| CCN(CC[S+](C)[O-])C(=O)c1c(F)cccc1C(=O)Nc1ccc(C(F)(C(F)(F)F)C(F)(F)F)cc1C (centres unmarked) [2-11] | A (100) |
| CCN(CSC)C(=O)c1c(Cl)cccc1C(=O)Nc1ccc(OC(F)(F)F)cc1C [2-16] | A (100) |
| Cc1cc(C(F)(C(F)(F)F)C(F)(F)F)ccc1NC(=O)c1cccc(I)c1C(=O)N1CCSC1 [3-2] | A (100) |
| CSCC(C)NC(=O)c1cccc(S(C)(=O)=O)c1C(=O)Nc1ccc(C(F)(C(F)(F)F)C(F)(F)F)cc1C (centres unmarked) [Compound No. 192, N^1-(4-Heptafluoroisopropyl-2-methylphenyl)-N^2-(1-methyl-2-methylthioethyl)-6-methylsulfonylphthalamide] | A (100) |
| CSCC(C)NC(=O)c1c(I)cccc1C(=O)Nc1ccc(OC(F)F)cc1C (centres unmarked) [compound 4] | A (100) |
| CSCC(C)NC(=O)c1c(I)cccc1C(=O)Nc1ccc(Cl)cc1C (centres unmarked) [compound 9] | A (100) |
| CSCC(C)NC(=O)c1c(F)cccc1C(=O)Nc1ccc(OC(F)(F)F)cc1C (centres unmarked) [compound 12] | A (100) |
| CSCC(C)NC(=O)c1c(F)cccc1C(=O)Nc1ccc(OC(F)F)cc1C (centres unmarked) [compound 13] | A (100) |
| CSCC(C)NC(=O)c1ccccc1C(=O)Nc1ccc(C(F)(F)C(F)(F)F)cc1C (centres unmarked) [compound 14] | A (100) |
| CSCC(C)NC(=O)c1ccccc1C(=O)Nc1ccc(OC(F)(F)F)cc1C (centres unmarked) [compound 15] | A (100) |
| CCSCC(C)NC(=O)c1c(F)cccc1C(=O)Nc1ccc(OC(F)(F)F)cc1C (centres unmarked) [compound 27] | A (100) |
| CSCC(CSC)NC(=O)c1c(I)cccc1C(=O)Nc1ccc(C(F)(F)C(F)(F)F)cc1C [compound 36] | A (100) |
| CSCC(C)NC(=O)c1ccc(Cl)c(Cl)c1C(=O)Nc1ccc(C(F)(C(F)(F)F)C(F)(F)F)cc1C (centres unmarked) [compound 42] | A (100) |
| CSCC(C)NC(=O)c1c(I)cccc1C(=O)Nc1cc2c(cc1Cl)OC(F)(F)C(F)O2 (centres unmarked) [compound 47] | A (100) |
| CSCCNC(=O)c1cccc(I)c1C(=O)Nc1ccc(OC(F)(F)F)cc1C [compound 51] | A (100) |
| CSCCNC(=O)c1c(I)cccc1C(=O)Nc1ccc(OC(F)(F)F)cc1C [compound 52] | A (100) |
| CSCCCNC(=O)c1c(I)cccc1C(=O)Nc1ccc(OC(F)(F)F)cc1C [compound 55] | A (100) |
| Cc1cc(OC(F)(F)F)ccc1NC(=O)c1cccc(I)c1C(=O)NCCSC(C)C [compound 58] | A (100) |

| Structure (SMILES) | Test Example 1 insecticidal effect (mortality) |
| --- | --- |
| CCSCCNC(=O)c1c(I)cccc1C(=O)Nc1ccc(OC(F)(F)F)cc1C [compound 71] | A (100) |
| CCCCCCSCC(C)NC(=O)c1c(I)cccc1C(=O)Nc1ccc(OC(F)(F)F)cc1C (centres unmarked) [compound 77] | A (100) |
| CCCCCCSCC(C)NC(=O)c1c(I)cccc1C(=O)Nc1ccc(C(F)(C(F)(F)F)C(F)(F)F)cc1C (centres unmarked) [compound 78] | A (100) |
| CC(CS(C)(=O)=O)NC(=O)c1c(I)cccc1C(=O)Nc1cc2c(cc1Cl)OC(F)(F)C(F)O2 (centres unmarked) [compound 103] | A (100) |
| CSCC(C)NC(=O)c1c(C(=O)Nc2ccc(OC(F)(F)F)cc2C)cccc1[N+](=O)[O-] (centres unmarked) [compound 104] | A (100) |
| CSCC(C)NC(=O)c1cc(I)ccc1C(=O)Nc1ccc(OC(F)(F)F)cc1C (centres unmarked) [compound 107] | A (100) |
| CSCC(C)NC(=O)c1ccc(I)cc1C(=O)Nc1ccc(OC(F)(F)F)cc1C (centres unmarked) [compound 110] | A (100) |
| Cc1cc(C(F)(F)C(F)(F)F)ccc1NC(=O)c1c(Cl)cccc1C(=O)NC(C)CS(C)(=O)=O (centres unmarked) [compound 116] | A (100) |
| CCC(CSC)NC(=O)c1c(I)cccc1C(=O)Nc1ccc(C(F)(C(F)(F)F)C(F)(F)F)cc1C (centres unmarked) [compound 120] | A (100) |
| CSCC(C)NC(=O)c1c(SC(F)(F)F)cccc1C(=O)Nc1ccc(C(F)(F)C(F)(F)F)cc1C (centres unmarked) [compound 129] | A (100) |
| CSCC(C)NC(=O)c1c(C(=O)Nc2ccc(C(F)(C(F)(F)F)C(F)(F)F)cc2C)cccc1[S+]([O-])C(F)(F)F (centres unmarked) [compound 132] | A (100) |
| CSCC(C)NC(=O)c1c(C(=O)Nc2ccc(OC(F)(F)F)cc2C)ccc(F)c1Cl (centres unmarked) [compound 147] | A (100) |
| CSCCCC(C)NC(=O)c1cccc(Cl)c1C(=O)Nc1ccc(C(F)(F)C(F)(F)F)cc1C (centres unmarked) [compound 151] | A (100) |
| Cc1cc(C(F)(F)C(F)(F)F)ccc1NC(=O)c1cccc(Cl)c1C(=O)NC(C)CCC[S+](C)[O-] (centres unmarked) [compound 152] | A (100) |
| CSCC(C)NC(=O)c1c(C(=O)Nc2ccc(C(F)(F)C(F)(F)F)cc2C)ccc2c1OCO2 (centres unmarked) [compound 158] | A (100) |
| Cc1cc(C(F)(C(F)(F)F)C(F)(F)F)ccc1NC(=O)c1cccc(Cl)c1C(=O)NC(C)(C)C[S+](C)[O-] (centres unmarked) [compound 172] | A (100) |
| CC[S+]([O-])CCCCC(C)NC(=O)c1c(I)cccc1C(=O)Nc1ccc(C(F)(F)C(F)(F)F)cc1C (centres unmarked) [compound 177] | A (100) |
| Cc1cc(OC(F)(F)F)ccc1NC(=O)c1ccc(Cl)c(Cl)c1C(=O)NC(C)CS(C)(=O)=O (centres unmarked) [compound 194] | A (100) |
| CCSC(C)CNC(=O)c1cccc(I)c1C(=O)Nc1ccc(C(F)(C(F)(F)F)C(F)(F)F)cc1C (centres unmarked) [compound 209] | A (100) |
| CC[S+]([O-])CCCC(C)NC(=O)c1c(Br)cccc1C(=O)Nc1ccc(C(F)(C(F)(F)F)C(F)(F)F)cc1C (centres unmarked) [compound 214] | A (100) |

| Structure (SMILES) | Test Example 1 insecticidal effect (mortality) |
| --- | --- |
| COc1ccc(C(=O)Nc2ccc(C(F)(C(F)(F)F)C(F)(F)F)cc2C)c(C(=O)NC(C)CSC)c1Cl (centres unmarked) [compound 222] | A (100) |
| Cc1cc(OC(F)(F)F)ccc1NC(=O)c1cccc(I)c1C(=O)NC1CCSC1 (centres unmarked) [compound 258] | A (100) |
| CCS(=O)(=O)CCC(C)NC(=O)c1c(Cl)cccc1C(=O)Nc1ccc(C(F)(C(F)(F)F)C(F)(F)F)cc1C (centres unmarked) [compound 275] | A (100) |
| Cc1cc(C(F)(F)F)ccc1NC(=O)c1cccc(Br)c1C(=O)NC(C)CS(C)(=O)=O (centres unmarked) [compound 277] | A (100) |
| Cc1cc(C(F)(C(F)(F)F)C(F)(F)F)ccc1NC(=O)c1ccc2c(c1C(=O)NC(C)CS(C)(=O)=O)OC(F)(F)O2 (centres unmarked) [compound 289] | A (100) |
| CSCC(C)(C)NC(=O)c1c(C(=O)Nc2ccc(OC(F)(F)F)cc2C)ccc2c1OC(F)(F)O2 [compound 292] | A (100) |
| CSCC(C)NC(=O)c1c(I)cccc1C(=O)Nc1ccc(C(F)(F)F)cc1C (centres unmarked) [compound 307] | A (100) |
| CSCC(C)(C)NC(=O)c1c(C(=O)Nc2ccc(OC(F)(F)F)cc2C)cccc1[N+](=O)[O-] [compound 322] | A (100) |
| CSCC(C)(C)NC(=O)c1c(C(=O)Nc2ccc(Br)cc2C)cccc1[N+](=O)[O-] [compound 324] | A (100) |
| COC(=O)CC[S+]([O-])CC(C)NC(=O)c1c(I)cccc1C(=O)Nc1ccc(C(F)(C(F)(F)F)C(F)(F)F)cc1C (centres unmarked) [compound 342] | A (100) |
| COC(=O)CCS(=O)(=O)CC(C)NC(=O)c1c(I)cccc1C(=O)Nc1ccc(C(F)(C(F)(F)F)C(F)(F)F)cc1C (centres unmarked) [compound 343] | A (100) |
| Cc1cc(C(F)(C(F)(F)F)C(F)(F)F)ccc1NC(=O)c1cccc(I)c1C(=O)NC(C)CS(=O)(=O)c1nc2ccccc2s1 (centres unmarked) [compound 345] | A (100) |
| CCSCC(C)NC(=O)c1ccc(OC(F)(F)F)cc1C(=O)Nc1ccc(C(F)(C(F)(F)F)C(F)(F)F)cc1C (centres unmarked) [compound 347] | A (100) |
| CSCC(C)(C)NC(=O)c1ccc(OC(F)(F)F)cc1C(=O)Nc1ccc(C(F)(C(F)(F)F)C(F)(F)F)cc1C [compound 356] | A (100) |
| C[S+]([O-])CC(C)(C)NC(=O)c1c(C(=O)Nc2ccc(OC(F)(F)F)cc2Cl)cccc1[N+](=O)[O-] (centres unmarked) [compound 377] | A (100) |
| CC(C)(CS(C)(=O)=O)NC(=O)c1c(C(=O)Nc2ccc(OC(F)(F)F)cc2Cl)cccc1[N+](=O)[O-] [compound 378] | A (100) |
| Cc1cc(C(F)(C(F)(F)F)C(F)(F)F)ccc1NC(=O)c1ccc(C)c(Cl)c1C(=O)NC(C)CS(C)(=O)=O (centres unmarked) [compound 379] | A (100) |
| C[S+]([O-])CC(C)(C)NC(=O)c1c(F)cccc1C(=O)Nc1ccc(OC(F)(F)F)cc1Cl (centres unmarked) [compound 386] | A (100) |
| CC(C)(CS(C)(=O)=O)NC(=O)c1c(F)cccc1C(=O)Nc1ccc(OC(F)(F)F)cc1Cl [compound 387] | A (100) |
